Experimental data reported in patent US20190152967A1, “PEROXISOME PROLIFERATOR-ACTIVATED RECEPTOR GAMMA SELECTIVE AGONISTS FOR INHIBITION OF RETINAL PIGMENT EPITHELIUM DEGENERATION OR GEOGRAPHIC ATROPHY” (The Schepens Eye Research Institute, Inc., priority 2016, published 2019).

Legend:
[1] = system: PPARγ target genes (ANGPT, ACOX3) in ARPE19 cells; assay: PPARγ target genes expression in ARPE19 cells; conditions: 48-hour treatment, troglitazone vs. rosiglitazone
human primary RPE cells = assay: ox-LDL-induced cell death of human primary RPE
Experimental: For both, RPE cells were treated with 500 μg/mL of ox-LDL for 48 hr. Data=mean±SEM, **P<0.01 and ***P<0.001 compared to ox-LDL group (2-tailed unpaired t-test).
Data=mean±SEM, ***P<0.001 compared to ox-LDL group (2-tailed unpaired t-test).

[2] = system: caspase-1 activation in ARPE-19 cells; assay: ox-LDL-induced caspase-1 activation (FLICA probe) in ARPE-19 cells; type: cell-based; conditions: ARPE-19 serum-starved 24 hr, ox-LDL 100 μg/ml, troglitazone 1.3 μM, 48 hr
Source text: Cells were imaged by fluorescent microscope and the numbers of capase-1 positive cells for each treatment group were quantified by a masked investigator.

primary human RPE cells = assay: chloroquine-induced death of primary human RPE cells
ARPE-19 cells = assay: ox-LDL-induced RPE (ARPE-19) cell death; type: cell-based; conditions: for protection of RPE from ox-LDL-induced cell death (FIG. 7): UVI3003 20 μM, troglitazone 1.3 μM alone or in combination with T0070907 and GW9662; for effect on the protection by PPARγ agonist troglitazone on RPE (FIG. 7): ARPE-19, ox-LDL, combined with troglitazone (1.3 μM)
Experimental: In FIG. 1B, ARPE-19 cells were treated for 48 hr with LDL or ox-LDL at 25, 50, or 100 μg/ml. Conditioned media were harvested, and LDH levels were quantified to evaluate cell death.
FIG. 5 is a bar graph showing testing different PPARγ agonists for RPE (ARPE-19) protection.
FIG. 7 is a bar graph showing testing the effect of different PPAR(α, γ) and RXR antagonists in ox-LDL-induced RPE (ARPE-19) cell death.

PPARγ [3] = biological target: T1, PPARγ (Homo sapiens, UniProt P37231); conditions: PPARγ antagonist; cited from earlier work
T1 sequence (P37231 1-505): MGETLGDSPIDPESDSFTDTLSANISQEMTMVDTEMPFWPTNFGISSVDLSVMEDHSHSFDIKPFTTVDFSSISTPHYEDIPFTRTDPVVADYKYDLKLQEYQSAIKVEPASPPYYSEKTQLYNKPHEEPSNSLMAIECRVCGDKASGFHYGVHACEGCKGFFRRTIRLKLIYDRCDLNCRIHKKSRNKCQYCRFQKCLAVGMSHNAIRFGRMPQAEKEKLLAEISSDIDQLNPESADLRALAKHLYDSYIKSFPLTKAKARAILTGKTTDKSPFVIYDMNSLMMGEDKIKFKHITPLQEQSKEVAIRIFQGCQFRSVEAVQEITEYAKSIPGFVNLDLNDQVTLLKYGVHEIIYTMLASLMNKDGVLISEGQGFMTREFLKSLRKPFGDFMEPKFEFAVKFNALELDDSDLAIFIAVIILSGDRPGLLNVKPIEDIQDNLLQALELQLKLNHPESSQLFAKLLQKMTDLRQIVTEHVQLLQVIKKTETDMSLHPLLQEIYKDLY

PPARγ [4] = biological target: T1, PPARγ; conditions: PPARγ agonist; cited from earlier work
RXR = RXR antagonist; cited from earlier work

Which results are given for Cc1c(C)c2c(c(C)c1O)CCC(C)(COc1ccc(CC3SC(=O)NC3=O)cc1)O2 (racemic) [troglitazone, (RS)-5-(4-[(6-hydroxy-2,5,7,8-tetramethylchroman-2-yl)methoxy]benzyl)thiazolidine-2,4-dione]?
expression levels of PPARγ target genes ANGPT (angiopoietin-like-4) and ACOX3 (FIGS. 6A-B) [1]: differentially affected; decrease of ox-LDL-induced cell death (FIG. 2B) (human primary RPE cells; human primary RPE, 500 μg/mL ox-LDL for 48 hr, doses of 0.65 μM and 0.98 μM): significantly decreased cell death in a dose-dependent manner; suppression of ox-LDL-induced death of primary human RPE cells (FIG. 4) (human primary RPE cells; primary human RPE cells): significantly suppressed ox-LDL-induced death; suppression of ox-LDL-induced caspase-1 activation (FIG. 3) [2]: significantly suppressed ox-LDL-induced caspase-1 activation; suppression of RPE death induced by chloroquine (FIG. 4) (primary human RPE cells): ineffective; protection of RPE from ox-LDL-induced cell death (FIG. 7) (ARPE-19 cells; ARPE-19): significantly protected the RPE against ox-LDL-induced cell death; protection of RPE from ox-LDL-induced cell death (FIG. 5) (ARPE-19 cells; ARPE-19, troglitazone at 0.65 and 3.25 μM): significantly protected RPE cell from ox-LDL-induced cell death

With CCC(=O)NC[C@H](Cc1ccc(OCCc2nc(-c3ccccc3)oc2C)cc1)N/C(C)=C\C(=O)c1ccc(C(F)(F)F)cc1 [GW6471] as the molecule, how does the “protection of RPE from ox-LDL-induced cell death (FIG. 7)” value (“protection of RPE … (FIG. 7)” for short) (ARPE-19 cells; ARPE-19) read?
The value was “no detectable effect in RPE protection”.

Which IC50 (PPARγ [3]) does the source give for O=C(Nc1ccccc1)c1cc([N+](=O)[O-])ccc1Cl [GW9662] here?
Its IC50 is < 100 nM.

What about the “effect on the protection by PPARγ agonist troglitazone on RPE (FIG. 7)” value (ARPE-19 cells) of the same molecule?
Its value is “did not affect the protection effect”.

What about the “protection of RPE … (FIG. 7)” value (ARPE-19 cells; ARPE-19) of the same molecule?
The value was “did not have any detectable protection effect”.

For O=C1NC(=O)C(Cc2ccc3cc(OCc4ccccc4F)ccc3c2)S1 (stereo not drawn) [MCC-555], which “EC50 relative to rosiglitazone” value (PPARγ [4]) is on record?
Its value is “lower than that of rosiglitazone”.

Which EC50 (PPARγ [4]) does the source give for CCCCC/C=C/C=C1/C(=O)C=C[C@@H]1C/C=C\CCCC(=O)O [PGJ2, 15-deoxy-Δ^12,14-Prostaglandin J2] here?
Its EC50 is 2000 to 7000 nM.

With O=C(Nc1ccncc1)c1cc([N+](=O)[O-])ccc1Cl [T0070907] as the molecule, how does the “effect on the protection by PPARγ agonist troglitazone on RPE (FIG. 7)” value (ARPE-19 cells) read?
The value was “did not affect the protection effect”.

And the “protection of RPE … (FIG. 7)” value (ARPE-19 cells; ARPE-19)?
Its value is “did not have any detectable protection effect”.

Which IC50 (RXR) does the source give for CCCCCOc1cc2c(cc1-c1cc(/C=C/C(=O)O)ccc1O)C(C)(C)CCC2(C)C [UVI3003] here?
Its IC50 is < 1000 nM.

And the “protection of RPE … (FIG. 7)” value (ARPE-19 cells; ARPE-19)?
The value was “significantly protected RPE from ox-LDL-induced death”.

What about the “protection of RPE from ox-LDL-induced death” value (ARPE-19 cells; ARPE-19, UVI3003 at high dose (20 μM)) of the same molecule?
The value was “about 100%”.
